{
  "source": "patent US20230105108A1",
  "about": "“COMPOUNDS FOR THE TREATMENT OF BACTERIAL INFECTIONS AND POTENTIATION OF ANTIBIOTICS” (GEORGIA STATE UNIVERSITY RESEARCH FOUNDATION, INC., priority 2019, published 2023)",
  "key": {"E. coli (ATCC 25922)": {"tested_on": "E. coli (ATCC 25922)", "assay": "MIC determination, sensitization fold and FIC index on E. coli", "type": "cell-based", "procedure,_shortened": "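E. coli in cation-adjusted Mueller Hinton II, 5×10^5 CFU/ml, 24 h at 37 °C shaking; rifampicin two-fold serial dilutions with or without fixed sensitizer (10 μM).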"}, "[1]": {"tested_on": "A. baumannii (ATCC 17978)", "assay": "MIC, sensitization fold and FIC index on A. baumannii", "type": "cell-based"}, "E. coli expressing mcr-1": {"tested_on": "E. coli expressing mcr-1", "assay": "Ex vivo skin burn infection model, mcr-1 positive E. coli", "details": "human skin burn, hypromellose gel; 3‰ (w/w)", "procedure": "To achieve topical application, compounds were formulated as hypromellose gel. […] After that, skin was loaded with hypromellose gel with different antibiotics and cultured at 37° C. for 24 hours. After 24 hours incubation, the skin sample was homogenized and the supernatants were serially diluted and plated on agar plates, from which bacterial counts on the skin was calculated. […] 1‰ polymyxin B hypromellose gel was used as positive control."}, "[2]": {"tested_on": "NDM-1 expressing E. coli strain", "assay": "microbe, parasite or virus in culture", "type": "cell-based"}, "[3]": {"tested_on": "mcr-1 over-expressing E. coli strains", "assay": "microbe, parasite or virus in culture", "type": "cell-based"}, "E. coli": {"tested_on": "E. coli", "assay": "Lysozyme assay (outer membrane disruption)", "type": "cell-based", "details": "50 μg/ml lysozyme, 25 μg/ml sensitizer, 10 min", "procedure": "Lysozyme assay to evaluate the disruption of Gram-negative bacteria out membrane by bacterial sensitizers. Lysozyme assay was performed based on literature reported method. E. coli was cultured in Mueller Hinton II cation-adjusted broth for overnight, centrifuged at 3000 g for 10 min, washed with HEPES buffer (pH=7.2) and then centrifuged again to obtain bacteria pallet. The pallet was then gently resuspended in HEPES buffer with 5 mM NaCN to obtain an E. coli suspension with OD600 between 0.8˜1.0. On a 96-well plate, each well was supplied with 100 μl lysozyme solution (100 μg/ml) containing 50 or 100 μg/ml bacterial sensitizers in HEPES buffer. To each well was added 100 μl E. coli suspension. The final concentration of lysozyme was 50 μg/ml. The plate was incubated at room temperature for 10 min and the OD600 was recorded. E. coli was also incubated with bacterial sensitizers in the absence of lysozyme to test if bacterial sensitizers would directly induce bacterial lysis. E. coli that was incubated with lysozyme alone or E. coli without any treatment were also used as negative control."}, "MRSA and B. subtilis": {"tested_on": "MRSA and B. subtilis", "assay": "Composition of mixed MRSA and B. subtilis under antibiotic pressure", "type": "cell-based", "details": "8 ng/ml trovafloxacin and 1.5 μg/ml MD-108", "procedure": "(§1) FIG. 11 contains graphs showing that MD-108 can change the composition between MRSA and E. coli (Panel A) or MRSA and B. subtilis (Panel B) when the bacteria strains are under the same antibiotic pressure.\n(§2) As a proof of concept, the relative ratio of E. coli and MRSA or B. subtilis and MRSA was measured with and without MD-108 (FIGS. 11A and B). […] When supplied with 1.5 μg/ml MD-108 and 8 ng/ml trovafloxacin, the MRSA inhibition was achieved, leaving E. coli as the dominant species (89% of the bacteria population)."}, "B. subtilis": {"tested_on": "B. subtilis", "assay": "MIC determination and sensitization fold on B. subtilis", "type": "cell-based", "details": "B. subtilis"}, "HEK293 cells": {"tested_on": "HEK293 cells", "assay": "Cytotoxicity on mammalian cells (CCK-8), HEK293", "type": "cell-based", "details": "Homo sapiens, HEK293", "procedure,_shortened": "(§3)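 Cells seeded a day ahead to ~80% confluency, exposed to varied compound concentrations for 24 h at 37° C, 5% CO2. CCK-8 added for a further 2 h and OD 450 nm read; viability expressed as percent of untreated control.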"}, "[4]": {"assay": "Cytotoxicity on mammalian cells (CCK-8), HEK293", "type": "cell-based", "details": "human, HEK293 cells; HEK293 cell line; 24 h", "procedure,_shortened": "as §3"}, "MRSA and E. coli": {"tested_on": "MRSA and E. coli", "assay": "Composition of mixed MRSA and E. coli under antibiotic pressure", "type": "cell-based", "details": "1.5 μg/ml MD-108 and 8 ng/ml trovafloxacin", "procedure": "as §1, §2"}, "M. smegmatis": {"tested_on": "M. smegmatis", "assay": "MIC on mycobacteria", "type": "cell-based, Mycobacterium smegmatis", "details": "Mycolicibacterium smegmatis, read-out: MIC on mycobacteria"}, "[5]": {"assay": "Cytotoxicity in H9c2 cells (CCK-8)", "type": "cell-based", "details": "rat, H9c2 cells; H9c2 cell line", "procedure,_shortened": "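H9c2 cells were grown in DMEM with 10% FBS, seeded the day before, and exposed to a range of di-amidine concentrations for 24 h at 37 °C, 5% CO2. Viability was read by CCK-8 after 3 h at 37 °C as absorbance at 450 nm.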"}, "MRSA (ATCC 33592)": {"tested_on": "MRSA (ATCC 33592)", "assay": "MIC determination and sensitization fold on MRSA", "type": "cell-based, methicillin-resistant Staphylococcus aureus", "details": "MRSA; rifampicin; compound at 3 μM"}, "[6]": {"assay": "Cytotoxicity on mammalian cells (CCK-8), NIH3T3", "type": "cell-based", "details": "mouse, NIH3T3 cells, 3T3 cell line", "procedure,_shortened": "as §3"}},
  "note": "Counter-ions that a name gives are not always drawn.",
  "data": [
    {"molecule": "Polymyxin B", "values": [
      {"measurement": "MIC of AB only", "setting": "E. coli (ATCC 25922); E. coli (wild type), antibiotic alone", "result": 1.2, "unit": "µg/mL"},
      {"measurement": "Sensitization fold", "setting": "E. coli (ATCC 25922); E. coli towards the antibiotic, MD-124 5 μg/ml", "result": 32, "unit": "fold"},
      {"measurement": "MIC of AB with MD-124", "setting": "E. coli (ATCC 25922); E. coli, MD-124 concentration 5 μg/ml", "result": 0.04, "unit": "µg/mL"},
      {"measurement": "MIC of AB with 5 μg/ml MD-124", "setting": "[1]; A. baumannii", "result": 0.04, "unit": "µg/mL"},
      {"measurement": "Sensitization fold with 5 μg/ml MD-124", "setting": "[1]; A. baumannii towards the antibiotic", "result": 4, "unit": "fold"},
      {"measurement": "MFC of AB only", "setting": "[1]; A. baumannii, antibiotic alone", "result": 1.6, "unit": "µg/mL"},
      {"measurement": "effect on bacterial load as compared with vehicle group", "setting": "E. coli expressing mcr-1", "result": "only had minor effects"},
      {"measurement": "MIC of AB with 5 μg/ml MD-124", "setting": "[2]; NDM-1 expressing E. coli", "result": 0.32, "unit": "µg/mL"},
      {"measurement": "Sensitization fold with 5 μg/ml MD-124", "setting": "[2]; NDM-1 expressing E. coli towards the antibiotic", "result": 8, "unit": "fold"},
      {"measurement": "MFC of AB only", "setting": "[2]; NDM-1 expressing E. coli, antibiotic alone", "result": 2.5, "unit": "µg/mL"},
      {"measurement": "MIC of AB with 5 μg/ml MD-124", "setting": "[3]; mcr-1 over-expression E. coli strain (MIC of polymyxin B 30 μg/ml)", "result": 1, "unit": "µg/mL"},
      {"measurement": "Sensitization fold with 5 μg/ml MD-124", "setting": "[3]; mcr-1 over-expression E. coli strain towards the antibiotic", "result": 30, "unit": "fold"},
      {"measurement": "MIC of Rif polymyxin B", "setting": "[3]; strain mcr-1 A", "result": 10, "unit": "µg/mL"},
      {"measurement": "MIC of Rif polymyxin B", "setting": "[3]; strain mcr-1 B", "result": 30, "unit": "µg/mL"},
      {"measurement": "bacterial lysis by lysozyme in the presence of sensitizer", "setting": "E. coli", "result": "led to bacterial lysis"}
    ]},
    {"molecule": "Cc1cc(CCc2ccc(C(=N)N)cc2)cc(CCc2ccc(C(=N)N)cc2)c1", "note": "[MD-108, 4,4′-((5-methyl-1,3-phenylene)bis(ethane-2,1-diyl))dibenzimidamide dihydrochloride]", "values": [
      {"measurement": "B. subtilis share of the composition", "setting": "MRSA and B. subtilis", "result": 99.5, "unit": "%"},
      {"measurement": "Sensitization fold", "setting": "B. subtilis; erythromycin, compound at 6 μM", "result": "32-fold at 6 μM."},
      {"measurement": "MIC", "setting": "B. subtilis; Bacillus subtilis, 24 h, compound alone, read-out: MIC", "result": 25, "unit": "µM"},
      {"measurement": "Sensitization fold", "setting": "E. coli (ATCC 25922); 10 μM compound, rifampicin as the antibiotic (Table 6)", "result": 16, "unit": "fold"},
      {"measurement": "Sensitization fold", "setting": "E. coli (ATCC 25922); E. coli, rifampicin, compound at 10 μM", "result": "16-fold at 10 μM."},
      {"measurement": "Sensitization fold", "setting": "E. coli (ATCC 25922); E. coli, rifampicin, compound at 25 μM", "result": "32-fold at 25 μM;"},
      {"measurement": "MIC", "setting": "E. coli (ATCC 25922); Escherichia coli, ATCC25922, 24 h", "result": 100, "unit": "µM"},
      {"measurement": "IC50", "setting": "HEK293 cells", "result": 50, "unit": "µM"},
      {"measurement": "CC50 at 24 h", "setting": "[4]", "result": 50, "unit": "µM"},
      {"measurement": "E. coli share of the bacteria population", "setting": "MRSA and E. coli", "result": 89, "unit": "%"},
      {"measurement": "MIC", "setting": "M. smegmatis", "result": "6 to 12", "unit": "µM"},
      {"measurement": "CC50 at 24 h", "setting": "[5]", "result": 12.5, "unit": "µM"},
      {"measurement": "Sensitization fold", "setting": "MRSA (ATCC 33592)", "result": "16-fold at 3 μM"},
      {"measurement": "CC50 at 24 h", "setting": "[6]", "result": 50, "unit": "µM"}
    ]}
  ]
}
